# Results reported in article PMC6731595, “The anti-parasitic agent suramin and several of its analogues are inhibitors of the DNA binding protein Mcm10” (Open Biology, 2019).
# Where a name gives a salt, the structure may show the parent alone.
# Legend:
# [1] = target: T1, full-length Xenopus Mcm10 (xMcm10-FL) (Xenopus laevis, UniProt Q5EAW4); assay: Fluorescence polarization competition assay, displacement of 5′-6FAM ssDNA probe from xMcm10-FL; format: binding; conditions: for Ki: averages of n = 2, xMcm10-FL 2 μM; for activity at xMcm10-FL (result in words): FP displacement curves, figure S3
# T1 construct: The full-length xMcm10 was expressed with MBP fused onto the N-terminus and 6x-His tag attached to the C-terminus; 6xHis (C); made in house; host or cells: E. coli BL21(DE3), as for the ID constructs ('as described above')
# T1 sequence (Q5EAW4 1-860): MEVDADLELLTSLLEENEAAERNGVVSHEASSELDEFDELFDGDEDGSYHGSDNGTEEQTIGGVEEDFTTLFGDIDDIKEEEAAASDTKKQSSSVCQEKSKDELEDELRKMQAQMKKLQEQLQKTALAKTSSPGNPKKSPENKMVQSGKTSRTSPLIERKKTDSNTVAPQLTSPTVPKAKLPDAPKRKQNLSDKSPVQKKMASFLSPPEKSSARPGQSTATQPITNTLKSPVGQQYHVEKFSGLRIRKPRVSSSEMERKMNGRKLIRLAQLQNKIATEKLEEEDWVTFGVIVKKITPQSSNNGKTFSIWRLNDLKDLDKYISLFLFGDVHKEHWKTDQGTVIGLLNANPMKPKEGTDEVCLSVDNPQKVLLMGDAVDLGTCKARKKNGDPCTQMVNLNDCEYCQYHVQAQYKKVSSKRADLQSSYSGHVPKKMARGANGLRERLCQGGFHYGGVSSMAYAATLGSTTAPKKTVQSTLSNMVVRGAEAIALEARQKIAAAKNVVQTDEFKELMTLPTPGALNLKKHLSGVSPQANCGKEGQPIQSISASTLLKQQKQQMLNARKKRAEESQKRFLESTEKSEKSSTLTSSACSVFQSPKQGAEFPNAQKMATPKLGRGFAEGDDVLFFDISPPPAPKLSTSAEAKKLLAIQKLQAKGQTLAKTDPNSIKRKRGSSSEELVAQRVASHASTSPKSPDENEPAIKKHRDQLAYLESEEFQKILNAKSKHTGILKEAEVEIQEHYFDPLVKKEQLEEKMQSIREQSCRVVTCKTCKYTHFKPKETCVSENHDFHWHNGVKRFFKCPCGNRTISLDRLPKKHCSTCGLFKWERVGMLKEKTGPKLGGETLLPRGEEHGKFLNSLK
# Description: (§1) A fluorescence polarization (FP) HTS assay was established to detect inhibitors of the binding of the 5′-6FAM 10-mer oligo probe to Mcm10. Test compounds dissolved in DMSO were added to 384-well plates (Corning 4514) using an Echo 550 acoustic dispenser (final DMSO 0.1%) to achieve a final single point screening concentration of 10 µM. Then 10 µl of 2× Xenopus internal domain Mcm10 (xMcm10-ID, final concentration 2 µM) in binding buffer (20 mM Tris HCl, 100 mM NaCl, 5% glycerol, and 0.01% triton, pH 7.5) was added using the Combi nL Multidrop dispenser. Finally, 10 µl of 2× 5′-6FAM DNA (final 12.5 nM) in binding buffer was added using the Multidrop. DMSO (0.1%, high signal) and probe only (low signal) controls were included on every plate. Plates were mixed for 2 min, incubated for 60 min at RT in the dark, and read on a CLARIOstar multimode plate reader (excitation: 482-16, emission: 530-40, dichroic filter: LP504).
# (§2) The LOPAC pilot screen identified the sulfhydryl reagent 4-chloromercuribenzoic acid as an inhibitor in the fluorescence polarization (FP) assay. As there was no known Mcm10 inhibitor, 4-chloromercuribenzoic acid (30 μM) was used as a positive control on initial screening plates. Following the discovery of suramin as a Mcm10 inhibitor, suramin (7 μM) was used as a positive control on subsequent screening plates. To confirm activity, screening hits were tested in dose response experiments (8 concentrations in duplicate) using xMcm10-ID. Similar dose response experiments were conducted with suramin and its analogs to confirm activity for hMcm10-ID (1 μM) and xMcm10-FL (2 μM) and to determine selectivity relative to RPA70AB (0.4 μM). Saturation experiments for each protein were conducted using increasing concentrations of protein with a fixed probe concentration (12.5 nM). FP was measured in mP units, and ∆mP values for each well were calculated as the difference between the measured mP and the average of the “probe only” controls. […] The parallel and perpendicular mP values were also used to calculate total fluorescence intensity (TFI) determined by the sum of parallel mP + (2 x perpendicular mP). TFI was used to detect fluorescence interference by compounds [1]. […] IC50 values were calculated using the four parameter logistic equation in Prism 6.0 (GraphPad). Ki values were obtained using an online Ki calculator according to the equations of Nikolovska-Coleska (http://sw16.im.med.umich.edu/soft-ware/calc_ki/). KD values were calculated using the one site or two site binding equations in Prism 6.0 (GraphPad).
# [2] = target: T2, human RPA70AB (A and B DNA binding domains of RPA70) (Homo sapiens, UniProt P27694); assay: Fluorescence polarization competition assay, displacement of 5′-6FAM ssDNA probe from RPA70AB; conditions: for Ki: predominant low-affinity (or only) component, mean ± s.e.m., n ≥ 3, read-out: fluorescence polarization hRPA70AB Ki2; for selectivity RPA/ hMcm10: ratio of hRPA70AB Ki2 to hMcm10-ID Ki (FP); for selectivity for hMcm10 over RPA70AB: FP
# T2 construct: recombinant human RPA70AB (181-422) in a pSV281 vector; 6xHis (TEV site) (N, cleaved yes); made in house; host or cells: Escherichia coli BL21(DE3)
# Description: as §1, §2
# hTERT RPE-1 cells = assay: CellTiter-Glo cell viability assay, hTERT RPE-1; format: cell-based; conditions: Homo sapiens, hTERT-RPE1, 96 h; 4 days, intracellular ATP; mean ± s.e.m., n = 3
# Description: HCT116 cells were grown in McCoy's 5A medium (Corning 10-050-CV) supplemented with 10% FBS (Sigma F4135), 1% Pen Strep (Gibco 15140) and 1% L-Glutamine (Gibco 205030). hTERT RPE-1 cells were grown in DMEM/F12 medium (Gibco 11320) supplemented with 10% FBS (Sigma F4135) and 1% Pen Strep (Gibco 15140). Cells were cultured at 37°C and 5% CO2. Cells were plated at 250 cells (hTERT RPE-1) or 500 cells (HCT116) per well in white-walled 96-well plates (Costar 3610) and allowed to recover for 24 h. Stock solutions of each inhibitor were prepared in sterile 1× PBS (Gibco 14190), and further diluted in the appropriate growth medium for each cell type. Cells were allowed to grow for 4 days in inhibitor containing medium and cell viability was measured with the CellTiter-Glo Luminescent Cell Viability Assay (Promega G7572) following the manufacturer's instructions. Viability of each drug treatment condition was normalized to the untreated control for each cell line and fitted to the sigmoidal dose–response variable slope four parameter equation in GraphPad Prism 6.0.
# T2 sequence (P27694 181-422): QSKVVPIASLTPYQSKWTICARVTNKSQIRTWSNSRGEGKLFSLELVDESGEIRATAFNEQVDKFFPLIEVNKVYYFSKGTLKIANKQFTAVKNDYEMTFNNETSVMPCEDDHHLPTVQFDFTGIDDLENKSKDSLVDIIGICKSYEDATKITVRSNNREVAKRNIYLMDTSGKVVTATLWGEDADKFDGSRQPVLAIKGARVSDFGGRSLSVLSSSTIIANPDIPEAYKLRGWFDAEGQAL
Ki [1] [µM],Ki [2] [µM],selectivity RPA/ hMcm10 [2],activity at xMcm10-FL (result in words) [1],selectivity for hMcm10 over RPA70AB [2],higher affinity for hMcm10-ID over xMcm10-FL ([1]; FP Ki comparison),Compound,IC50 (hTERT RPE-1 cells) [µM]
4.4,11 ± 1,6,–,–,–,O=C(Nc1cccc(C(=O)Nc2ccc(S(=O)(=O)O)c3cc(S(=O)(=O)O)cc(S(=O)(=O)O)c23)c1)Nc1cccc(C(=O)Nc2ccc(S(=O)(=O)O)c3cc(S(=O)(=O)O)cc(S(=O)(=O)O)c23)c1 [NF023],–
3.4,1.9 ± 0.1,11,–,more than 10 fold,up to 20 fold,O=C(Nc1cccc(C(=O)Nc2cc(C(=O)Nc3ccc(S(=O)(=O)O)c4cc(S(=O)(=O)O)cc(S(=O)(=O)O)c34)ccc2F)c1)Nc1cccc(C(=O)Nc2cc(C(=O)Nc3ccc(S(=O)(=O)O)c4cc(S(=O)(=O)O)cc(S(=O)(=O)O)c34)ccc2F)c1 [NF157],120 ± 16

# The remaining lines, values behind:
Compound,Ki [1] [µM],Ki [2] [µM],selectivity RPA/ hMcm10 [2],activity at xMcm10-FL (result in words) [1],selectivity for hMcm10 over RPA70AB [2],higher affinity for hMcm10-ID over xMcm10-FL ([1]; FP Ki comparison),IC50 (hTERT RPE-1 cells) [µM]
"Cc1nc(/N=N/c2ccc(S(=O)(=O)O)cc2S(=O)(=O)O)c(COP(=O)(O)O)c(C=O)c1O [PPADS, pyridoxalphosphate-6-azophenyl-2’, 4’-disulfonic acid tetrasodium salt]",> 1000,> 1000,>59,inactivity,greater than 50 fold,–,400 ± 14
"Cc1nc(/N=N/c2cc(S(=O)(=O)O)ccc2S(=O)(=O)O)c(COP(=O)(O)O)c(C=O)c1O [iso-PPADS, pyridoxalphosphate-6-azophenyl-2’, 5’-disulfonic acid tetrasodium salt]",> 1000,> 1000,>56,inactivity,greater than 50 fold,–,560 ± 55
"Cc1ccc(C(=O)Nc2ccc(S(=O)(=O)O)c3cc(S(=O)(=O)O)cc(S(=O)(=O)O)c23)cc1NC(=O)c1cccc(NC(=O)Nc2cccc(C(=O)Nc3cc(C(=O)Nc4ccc(S(=O)(=O)O)c5cc(S(=O)(=O)O)cc(S(=O)(=O)O)c45)ccc3C)c2)c1 [suramin, suramin sodium salt]",3.4,2.5 ± 0.1,3,–,–,–,400 ± 22
